Reference: patent US11021506B2, “Thiosaccharide mucolytic agents” (The Regents of the University of California, priority 2013, dated 2021)
“Also recorded” adds a separate entry of the source.

Columns and labels:
[1] = Rheometry: elastic modulus (G′) of pooled induced sputum from healthy subjects; design: species or system human; details: for effect on elastic modulus G′ (in words): 1 mM (FIG. 1)
Procedure: A rheometer was employed to determine the effect of the compounds disclosed herein on the elastic modulus (G′) of sputum sample from human subjects. The terms “elastic modulus,” “G′,” and the like refer to the elastic modulus as known in the art. Inhalation of 3% saline facilitates mucus expectoration (“induced sputum”) in human subjects, including in healthy subjects without lung disease. A typical sputum induction yields 3-5 mL of sputum, and induced sputum samples can be pooled from several donors in order to provide as much as 20 mL with for any given set of experiments. The rheometer can use 1 mL per assay. Rheological measurements can be made, e.g., with a AR2000 cone-and-plate rheometer (TA Instruments), as known in the art. Patients with cystic fibrosis (CF) are able to spontaneously expectorate sputum samples. […] We typically add the test compound to induced sputum at a 10% v/v, and we calculate effect of the test compound by measuring G′ every 2 minutes for periods up to 20 minutes. Because oxidation can cause baseline drift, we keep the experiment under nitrogen to improve signal to noise ratios. We custom modified a cone and plate rheometer to permit this kind of control in our rheometry experiments. Another protocol element that we use to optimize signal to noise is the addition of protease inhibitors to CF sputum to inhibit protease digestion of mucin. As depicted in FIG. 1, the elastic modulus (G′) of pooled induced sputum from five healthy subjects was determined as a function of time in the presence of 1 mM PBS (phosphate buffered saline), NAC (N-acetylcysteine), Cmpd 1, Cmpd 29, Glc-NAc, and Gal-NAc.

[2] = Rheometry: elastic modulus (G′) of sputum from cystic fibrosis (CF) patients; design: species or system human; details: for effect on G′ of CF sputum: sputum pooled from three CF patients (FIG. 3); for mucolytic effect: change in elastic modulus G′ (%-change from baseline): twelve-minute test period (FIG. 5A); for mucolysis: onset and endpoint (12-minutes), change in G′: single sputum sample from a CF patient (FIG. 6); for mucolytic effect on elastic modulus G′ over 12-minute test period: CF sputum n=5 donors (FIG. 7A)
Procedure: (§1) A rheometer was employed to determine the effect of the compounds disclosed herein on the elastic modulus (G′) of sputum sample from human subjects. The terms “elastic modulus,” “G′,” and the like refer to the elastic modulus as known in the art. Inhalation of 3% saline facilitates mucus expectoration (“induced sputum”) in human subjects, including in healthy subjects without lung disease. A typical sputum induction yields 3-5 mL of sputum, and induced sputum samples can be pooled from several donors in order to provide as much as 20 mL with for any given set of experiments. The rheometer can use 1 mL per assay. Rheological measurements can be made, e.g., with a AR2000 cone-and-plate rheometer (TA Instruments), as known in the art.
(§2) Patients with cystic fibrosis (CF) are able to spontaneously expectorate sputum samples. […] We typically add the test compound to induced sputum at a 10% v/v, and we calculate effect of the test compound by measuring G′ every 2 minutes for periods up to 20 minutes. Because oxidation can cause baseline drift, we keep the experiment under nitrogen to improve signal to noise ratios. We custom modified a cone and plate rheometer to permit this kind of control in our rheometry experiments. Another protocol element that we use to optimize signal to noise is the addition of protease inhibitors to CF sputum to inhibit protease digestion of mucin. […]
A series of time courses of the change in baseline G′ (%-change from baseline) of sputum samples at 10 mM concentration of MDG and Cmpds 1-5 is depicted in FIG. 6. Each datum in the figure was obtained from a single sputum sample from a patient with cystic fibrosis. […] Moreover, the length of the chain leading to the thiol is important; compare Cmpd 2 (C5 alkylene) vs. Cmpd 3 (C2 alkylene).
A time course of the change in baseline G′ (%-change from baseline) at 10 mM concentration of thiosaccharide is depicted in FIG. 7A. The drugs compared include an unmodified sugar (MDG), Glutathione (GSH, a natural endogenous reducing agent), N-acetyl cysteine (NAC), Cmpd 1 and Cmpd 2.

[3] = Rheometry: disulfide dimer study, elastic modulus (G′) of sputum (source not stated); design: species or system human; details: 10 mM (FIG. 2)
Procedure: as §1, §2

[4] = Oxidation-reduction potential (ORP) measurement; type: physicochemical; details: solutions (1 mM); for Reducing capacity (ORP): ORP probe; for reducing properties (in words): compared to parent sugar (PS) control
Procedure: An INLAB® Redox Micro ORP probe (Mettler Toledo) was employed, which utilizes a small platinum ring indicator electrode and a 3M KCL reference electrolyte. ORP values were determined for thiosaccharides, NAC and glutathione.

[5] = cited from earlier work
[6] = 61 mM, CF sputum n=5 donors, 12 minutes (FIG. 5C)

Structure (SMILES) | Reducing capacity (ORP) [4] | reducing properties (in words) [4] | mucolytic effect: change in elastic modulus G′ (%-change from baseline) ([2]; 61 mM, CF sputum n=5 donors) | mucolysis: onset and endpoint (12-minutes), change in G′ ([2]; 10 mM) | mucolytic effect on elastic modulus G′ over 12-minute test period ([2]; 10 mM) | also measured
CO[C@H]1OC(CO)[C@H](S)[C@H](O)C1O (stereo partly drawn) [Cmpd 29] | – | – | – | – | – | effect on elastic modulus G′ (in words) [1]: approximately half of the decrease in G′ observed with Cmpd 1
OCC1O[C@H](OCCCCCS)C(O)[C@@H](O)[C@@H]1O (stereo partly drawn) [Cmpd 4] | – | – | – | a galactose moiety (i.e., Cmpd 2) affords a better mucolytic than mannose (Cmpd 5) or glucose (Cmpd 4) | – | –
CC(=O)N[C@@H](CS)C(=O)O [NAC, N-Acetylcysteine, reference compound] | 121 mV | did not have strong reducing properties | decrease the elastic modulus (G′) | – | no better than control solutions | effect on elastic modulus G′ (in words) [1]: not effective in decreasing G′; mucolytic effect at 12 minutes [2, 6]: similar; pKa [5]: 2.2
N[C@@H](CCC(=O)N[C@@H](CS)C(=O)NCC(=O)O)C(=O)O [GSH, Glutathione] | 140 mV | did not have strong reducing properties | – | – | ineffective as mucolytics | –
OCC1O[C@@H](OCCCCCS)C(O)[C@@H](O)[C@@H]1O (stereo partly drawn) [Cmpd 5] | – | – | – | a galactose moiety (i.e., Cmpd 2) affords a better mucolytic than mannose (Cmpd 5) or glucose (Cmpd 4) | – | –

More lines, main results first:

Reducing capacity (ORP) [4] | reducing properties (in words) [4] | Structure (SMILES) | mucolytic effect: change in elastic modulus G′ (%-change from baseline) ([2]; 61 mM, CF sputum n=5 donors) | mucolysis: onset and endpoint (12-minutes), change in G′ ([2]; 10 mM) | mucolytic effect on elastic modulus G′ over 12-minute test period ([2]; 10 mM) | also measured
99 mV | relatively strong reducing capabilities | CO[C@H]1OC(CS)[C@H](O)C(O)C1O (stereo partly drawn) [Cmpd 1, methyl 6-deoxy-6-thio-α-D-galactopyranoside] | decrease the elastic modulus (G′) | – | – | decrease in elastic modulus G′ ([1]; 1 mM, during the time course of the experiment (FIG. 1)): ~30%; effect on G′ of CF sputum ([2]; 10 mM): larger than the effect in healthy induced sputum; onset of action ([2]; 61 mM, CF sputum): significantly faster onset of action relative to either parent sugar MDG or NAC; average mucolytic effect at two minutes ([2]; 61 mM, CF sputum n=5 donors, 2 minutes (FIG. 5B)): significantly larger than observed for NAC; also recorded: much larger mucolytic effects than NAC; mucolytic effect at 12 minutes [2, 6]: similar; decrease in elastic modulus G′ of individual sputum samples from CF patients ([2]; individual samples from three CF patients (FIGS. 4A-4D)): ca. 50%; efficacy in reducing elastic modulus G′ (comparison) [3]: more effective in reducing elastic modulus G′ than either the disulfide dimer of Cmpd 1 or Cmpd 6
−15 mV | very strong reducing activity | OCC1O[C@@H](OCCCCCS)C(O)[C@@H](O)[C@H]1O (stereo partly drawn) [Cmpd 2, 5-Thiolpentyl β-D-galactopyranoside] | – | affords a better mucolytic than mannose (Cmpd 5) or glucose (Cmpd 4) | largest effect | mucolytic effect at two minutes ([2]; 10 mM, CF sputum n=5 donors, 2 minutes (FIG. 7B)): much larger mucolytic effects than NAC; mucolytic effect at 12 minutes ([2]; 10 mM, CF sputum n=5 donors, 12 minutes (FIG. 7C)): significantly greater than observed for NAC; also recorded: significantly greater than for Cmpd 1; also recorded: much larger mucolytic effects than NAC; also recorded: significantly greater than that of Cmpd 1
176 mV | – | CO[C@H]1O[C@H](CO)[C@H](O)[C@H](O)[C@H]1O [MDG, methyl α-D-galactopyranoside, reference compound] | no mucolytic effect | – | ineffective as mucolytics | effect on G′ of CF sputum ([2]; 10 mM): ineffective in decreasing G′ of CF sputum
